Data reported in patent US20120029187A1, “HALOALKYLSULFONANILIDE DERIVATIVE” (Nissan Chemical Industries, Ltd., priority 2009, published 2012).

What was measured:
Format in all cases: in vivo
ducksalad [1] = test: Test Example 2: herbicidal effects during the vegetation period under submerged conditions; conditions: treatment during the vegetation period under submerged conditions; dose 2.52 g/a
How it was run: (§1)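 Barnyardgrass, bulrush and ducksalad were co-sown in alluvial soil flooded to 4 cm and grown in a greenhouse at 25 to 30° C. At the 1- or 2-leaf stage, water-diluted emulsifiable concentrates went onto the water surface at set doses (g/a). Herbicidal effect was scored three weeks later on a graded scale.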

bulrush [2] = test: as above; conditions: treatment during the vegetation period under submerged conditions; dose 2.52 g/a
How it was run: as §1

barnyardgrass [3] = test: as above; conditions: treatment during the vegetation period under submerged conditions; dose 2.52 g/a
How it was run: as §1

common ragweed [4] = test: Test Example 3: herbicidal effects in soil treatment; conditions: dose 3.2 g/a
How it was run: (§2)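 Seeds were sown in sterilized diluvial soil and covered with about 1.5 cm of soil. Compounds, formulated as emulsifiable concentrates and diluted with water, were sprayed evenly over the soil surface at set doses in g/a. Herbicidal effect was scored on a rating scale three weeks later.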

water foxtail [5] = test: as above; conditions: dose 3.2 g/a
How it was run: as §2

barnyardgrass [6] = test: as above; conditions: dose 3.2 g/a
How it was run: as §2

common chickweed [7] = test: as above; conditions: dose 3.2 g/a
How it was run: as §2

velvetleaf [8] = test: as above; conditions: dose 3.2 g/a
How it was run: as §2

giant foxtail [9] = test: as above; conditions: dose 3.2 g/a
How it was run: as §2

redroot pigweed [10] = test: as above; conditions: dose 3.2 g/a
How it was run: as §2

common lambsquater [11] = test: as above; conditions: dose 3.2 g/a
How it was run: as §2

posumbu knotweed [12] = test: as above; conditions: dose 3.2 g/a
How it was run: as §2

large crabgrass [13] = test: as above; conditions: dose 3.2 g/a
How it was run: as §2

beadstraw [14] = test: as above; conditions: dose 3.2 g/a
How it was run: as §2

Italian ryegrass [15] = test: as above; conditions: dose 3.2 g/a
How it was run: as §2

wild oat [16] = test: as above; conditions: dose 3.2 g/a
How it was run: as §2

common ragweed [17] = test: Test Example 4: herbicidal effect in foliage treatment; conditions: dose 3.2 g/a, three weeks after application
How it was run: (§3)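 Weeds and crops sown in sterilized diluvial soil under ~1.5 cm cover and grown in greenhouse at 25 to 30° C. At 14 days, water-diluted emulsifiable concentrate sprayed onto foliage at set doses (g/a); herbicidal effect scored on a rating scale three weeks after application.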

water foxtail [18] = test: as above; conditions: dose 3.2 g/a, three weeks after application
How it was run: as §3

barnyardgrass [19] = test: as above; conditions: dose 3.2 g/a, three weeks after application
How it was run: as §3

common chickweed [20] = test: as above; conditions: dose 3.2 g/a, three weeks after application
How it was run: as §3

velvetleaf [21] = test: as above; conditions: dose 3.2 g/a, three weeks after application
How it was run: as §3

giant foxtail [22] = test: as above; conditions: dose 3.2 g/a, three weeks after application
How it was run: as §3

redroot pigweed [23] = test: as above; conditions: dose 3.2 g/a, three weeks after application
How it was run: as §3

common lambsquater [24] = test: as above; conditions: dose 3.2 g/a, three weeks after application
How it was run: as §3

posumbu knotweed [25] = test: as above; conditions: dose 3.2 g/a, three weeks after application
How it was run: as §3

large crabgrass [26] = test: as above; conditions: dose 3.2 g/a, three weeks after application
How it was run: as §3

beadstraw [27] = test: as above; conditions: dose 3.2 g/a, three weeks after application
How it was run: as §3

Italian ryegrass [28] = test: as above; conditions: dose 3.2 g/a, three weeks after application
How it was run: as §3

wild oat [29] = test: as above; conditions: dose 3.2 g/a, three weeks after application
How it was run: as §3

ducksalad [30] = test: Test Example 1: herbicidal effects in preemergence treatment under submerged conditions; conditions: dose 2.52 g/a
How it was run: (§4)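 Alluvial soil was flooded to 4 cm, sown with barnyardgrass, bulrush and ducksalad, and planted with 2.5-leaf rice seedlings. On the seeding day, water-diluted emulsifiable concentrates were applied to the water surface at set doses (g/a). After three weeks in a 25 to 30° C. greenhouse, mortality was scored 0–5.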

bulrush [31] = test: as above; conditions: dose 2.52 g/a
How it was run: as §4

barnyardgrass [32] = test: as above; conditions: dose 2.52 g/a
How it was run: as §4

transplanted rice = test: Test Example 1: preemergence treatment under submerged conditions, effect on crop; conditions: dose 2.52 g/a
How it was run: as §4

| Structure (SMILES) | C: ducksalad, herbicidal effect (evaluation scale 0-5) (ducksalad [1]) | B: bulrush, herbicidal effect (evaluation scale 0-5) (bulrush [2]) | A: barnyardgrass, herbicidal effect (evaluation scale 0-5) (barnyardgrass [3]) | J: common ragweed, herbicidal effect (evaluation scale 0-5) (common ragweed [4]) | G: water foxtail, herbicidal effect (evaluation scale 0-5) (water foxtail [5]) | A: barnyardgrass, herbicidal effect (evaluation scale 0-5) (barnyardgrass [6]) | N: common chickweed, herbicidal effect (evaluation scale 0-5) (common chickweed [7]) | I: velvetleaf, herbicidal effect (evaluation scale 0-5) (velvetleaf [8]) | E: giant foxtail, herbicidal effect (evaluation scale 0-5) (giant foxtail [9]) | K: redroot pigweed, herbicidal effect (evaluation scale 0-5) (redroot pigweed [10]) | L: common lambsquater, herbicidal effect (evaluation scale 0-5) (common lambsquater [11]) | M: posumbu knotweed, herbicidal effect (evaluation scale 0-5) (posumbu knotweed [12]) | D: large crabgrass, herbicidal effect (evaluation scale 0-5) (large crabgrass [13]) | O: beadstraw, herbicidal effect (evaluation scale 0-5) (beadstraw [14]) | H: Italian ryegrass, herbicidal effect (evaluation scale 0-5) (Italian ryegrass [15]) | F: wild oat, herbicidal effect (evaluation scale 0-5) (wild oat [16]) | J: common ragweed, herbicidal effect (common ragweed [17]) | G: water foxtail, herbicidal effect (water foxtail [18]) | A: barnyardgrass, herbicidal effect (barnyardgrass [19]) | N: common chickweed, herbicidal effect (common chickweed [20]) | also measured |
| --- | --- | --- | --- | --- | --- | --- | --- | --- | --- | --- | --- | --- | --- | --- | --- | --- | --- | --- | --- | --- | --- |
| CN(c1ccccc1CN1COC(C)(C)CC1=O)S(=O)(=O)C(F)(F)F [II-18] | 2 (mortality of at least 20% and less than 40%) | 5 (mortality of 90% or above (nearly complete death)) | 5 (mortality of 90% or above (nearly complete death)) | 4 (mortality of at least 70% and less than 90%) | 0 (mortality of less than 5% (almost ineffective)) | 4 (mortality of at least 70% and less than 90%) | 4 (mortality of at least 70% and less than 90%) | 0 (mortality of less than 5% (almost ineffective)) | 0 (mortality of less than 5% (almost ineffective)) | 0 (mortality of less than 5% (almost ineffective)) | 0 (mortality of less than 5% (almost ineffective)) | 0 (mortality of less than 5% (almost ineffective)) | 0 (mortality of less than 5% (almost ineffective)) | 4 (mortality of at least 70% and less than 90%) | 0 (mortality of less than 5% (almost ineffective)) | 0 (mortality of less than 5% (almost ineffective)) | 3 (mortality of at least 40% and less than 70%) | 0 (mortality of less than 5% (almost ineffective)) | 4 (mortality of at least 70% and less than 90%) | 4 (mortality of at least 70% and less than 90%) | I: velvetleaf, herbicidal effect (velvetleaf [21]): 0 (mortality of less than 5% (almost ineffective)); E: giant foxtail, herbicidal effect (giant foxtail [22]): 0 (mortality of less than 5% (almost ineffective)); K: redroot pigweed, herbicidal effect (redroot pigweed [23]): 0 (mortality of less than 5% (almost ineffective)); L: common lambsquater, herbicidal effect (common lambsquater [24]): 0 (mortality of less than 5% (almost ineffective)); M: posumbu knotweed, herbicidal effect (posumbu knotweed [25]): 3 (mortality of at least 40% and less than 70%); D: large crabgrass, herbicidal effect (large crabgrass [26]): 0 (mortality of less than 5% (almost ineffective)); O: beadstraw, herbicidal effect (beadstraw [27]): 5 (mortality of 90% or above (nearly complete death)); H: Italian ryegrass, herbicidal effect (Italian ryegrass [28]): 0 (mortality of less than 5% (almost ineffective)); F: wild oat, herbicidal effect (wild oat [29]): 0 (mortality of less than 5% (almost ineffective)); C: ducksalad, herbicidal effect (evaluation scale 0-5) (ducksalad [30]): 0 (mortality of less than 5% (almost ineffective)); B: bulrush, herbicidal effect (evaluation scale 0-5) (bulrush [31]): 5 (mortality of 90% or above (nearly complete death)); A: barnyardgrass, herbicidal effect (evaluation scale 0-5) (barnyardgrass [32]): 2 (mortality of at least 20% and less than 40%); a: transplanted rice, effect on crop (evaluation scale 0-5) (transplanted rice): 0 (mortality of less than 5% (almost ineffective)) |
| CC1(C)OCN(Cc2ccccc2NS(=O)(=O)C(F)(F)F)C(=O)C1F (stereo not drawn) [II-32] | 5 (mortality of 90% or above (nearly complete death)) | 5 (mortality of 90% or above (nearly complete death)) | 5 (mortality of 90% or above (nearly complete death)) | 5 (mortality of 90% or above (nearly complete death)) | 5 (mortality of 90% or above (nearly complete death)) | 5 (mortality of 90% or above (nearly complete death)) | 3 (mortality of at least 40% and less than 70%) | 3 (mortality of at least 40% and less than 70%) | 4 (mortality of at least 70% and less than 90%) | 3 (mortality of at least 40% and less than 70%) | 0 (mortality of less than 5% (almost ineffective)) | 4 (mortality of at least 70% and less than 90%) | 5 (mortality of 90% or above (nearly complete death)) | 3 (mortality of at least 40% and less than 70%) | 5 (mortality of 90% or above (nearly complete death)) | 0 (mortality of less than 5% (almost ineffective)) | 3 (mortality of at least 40% and less than 70%) | 5 (mortality of 90% or above (nearly complete death)) | 5 (mortality of 90% or above (nearly complete death)) | 3 (mortality of at least 40% and less than 70%) | I: velvetleaf, herbicidal effect (velvetleaf [21]): 4 (mortality of at least 70% and less than 90%); E: giant foxtail, herbicidal effect (giant foxtail [22]): 4 (mortality of at least 70% and less than 90%); K: redroot pigweed, herbicidal effect (redroot pigweed [23]): 1 (mortality of at least 5% and less than 20%); L: common lambsquater, herbicidal effect (common lambsquater [24]): 2 (mortality of at least 20% and less than 40%); M: posumbu knotweed, herbicidal effect (posumbu knotweed [25]): 2 (mortality of at least 20% and less than 40%); D: large crabgrass, herbicidal effect (large crabgrass [26]): 4 (mortality of at least 70% and less than 90%); O: beadstraw, herbicidal effect (beadstraw [27]): 4 (mortality of at least 70% and less than 90%); H: Italian ryegrass, herbicidal effect (Italian ryegrass [28]): 4 (mortality of at least 70% and less than 90%); F: wild oat, herbicidal effect (wild oat [29]): 2 (mortality of at least 20% and less than 40%); C: ducksalad, herbicidal effect (evaluation scale 0-5) (ducksalad [30]): 5 (mortality of 90% or above (nearly complete death)); B: bulrush, herbicidal effect (evaluation scale 0-5) (bulrush [31]): 5 (mortality of 90% or above (nearly complete death)); A: barnyardgrass, herbicidal effect (evaluation scale 0-5) (barnyardgrass [32]): 5 (mortality of 90% or above (nearly complete death)); a: transplanted rice, effect on crop (evaluation scale 0-5) (transplanted rice): 0 (mortality of less than 5% (almost ineffective)) |
